According to ChEMBL document CHEMBL3045279, “Chiral Synthesis of Pefurazoate Enantiomers and Their Antifungal Activity to Gibberella fujikuroi” (1992):
Converted amounts (≈) assume the structure as drawn.

Experiments:
Type in all cases: functional
Fusarium fujikuroi [1] = assay: Antifungal activity against Fusarium fujikuroi assessed as mycelial growth inhibition at 5 ppm after 4 days relative to control; conditions: 96 h, read-out: GI
Fusarium fujikuroi [2] = assay: Antifungal activity against Fusarium fujikuroi assessed as mycelial growth inhibition after 4 days; conditions: 96 h; for EC50: read-out: ED50 (the source's name)
Fusarium fujikuroi [3] = assay: Antifungal activity against Fusarium fujikuroi assessed as mycelial growth inhibition at 0.15 ppm after 4 days relative to control; conditions: 96 h, read-out: GI
Fusarium fujikuroi [4] = assay: Antifungal activity against Fusarium fujikuroi assessed as mycelial growth inhibition at 0.31 ppm after 4 days relative to control; conditions: 96 h, read-out: GI
Fusarium fujikuroi [5] = assay: Antifungal activity against Fusarium fujikuroi assessed as mycelial growth inhibition at 0.63 ppm after 4 days relative to control; conditions: 96 h, read-out: GI
Fusarium fujikuroi [6] = assay: Antifungal activity against Fusarium fujikuroi assessed as mycelial growth inhibition at 1.25 ppm after 4 days relative to control; conditions: 96 h, read-out: GI
Fusarium fujikuroi [7] = assay: Antifungal activity against Fusarium fujikuroi assessed as mycelial growth inhibition at 2.5 ppm after 4 days relative to control; conditions: 96 h, read-out: GI
Fusarium fujikuroi [8] = assay: Inhibition of ergosterol biosynthesis in Fusarium fujikuroi assessed as [2-14C]-sodium acetate incorporation at 7.35 ppm after 2 hr by liquid scintillation counting analysis relative to control
Fusarium fujikuroi [9] = assay: Inhibition of ergosterol biosynthesis in Fusarium fujikuroi assessed as decrease in ergosterol level in total lipids measuring [2-14C]-sodium acetate incorporation at 0.24 ppm after 2 hr by liquid scintillation counting analysis (reference value: 6 to 12.3%)
Fusarium fujikuroi [10] = assay: Inhibition of ergosterol biosynthesis in Fusarium fujikuroi assessed as increase in 24-methylenedihydrolanosterol level in total lipids measuring [2-14C]-sodium acetate incorporation at 0.24 ppm after 2 hr by liquid scintillation counting analysis (reference value: 4.8 to 7.4%)
Fusarium fujikuroi [11] = assay: Inhibition of ergosterol biosynthesis in Fusarium fujikuroi assessed as decrease in ergosterol level in total lipids measuring [2-14C]-sodium acetate incorporation at 7.35 ppm after 2 hr by liquid scintillation counting analysis (reference value: 6 to 12.3%)
Fusarium fujikuroi [12] = assay: Inhibition of ergosterol biosynthesis in Fusarium fujikuroi assessed as increase in 24-methylenedihydrolanosterol level in total lipids measuring [2-14C]-sodium acetate incorporation at 7.35 ppm after 2 hr by liquid scintillation counting analysis (reference value: 4.8 to 7.4%)
Fusarium fujikuroi [13] = assay: Antifungal activity against Fusarium fujikuroi assessed as mycelial growth inhibition at 10 ppm after 4 days relative to control; conditions: 96 h, read-out: GI
Fusarium fujikuroi [14] = assay: Antifungal activity against Fusarium fujikuroi assessed as mycelial growth inhibition at 20 ppm after 4 days relative to control; conditions: 96 h, read-out: GI
Fusarium fujikuroi [15] = assay: Antifungal activity against Fusarium fujikuroi assessed as mycelial growth inhibition at 40 ppm after 4 days relative to control; conditions: 96 h, read-out: GI
Fusarium fujikuroi [16] = assay: Inhibition of ergosterol biosynthesis in Fusarium fujikuroi assessed as [2-14C]-sodium acetate incorporation at 0.24 ppm after 2 hr by liquid scintillation counting analysis relative to control

Compound | inhibition of growth at 5 ppm (Fusarium fujikuroi [1]) [%] | MIC (Fusarium fujikuroi [2]) [µg/mL] | EC50 (Fusarium fujikuroi [2]) [µg/mL] | inhibition of growth at 0.15 ppm (Fusarium fujikuroi [3]) [%] | inhibition of growth at 0.31 ppm (Fusarium fujikuroi [4]) [%] | inhibition of growth at 0.63 ppm (Fusarium fujikuroi [5]) [%] | inhibition of growth at 1.25 ppm (Fusarium fujikuroi [6]) [%] | inhibition of growth at 2.5 ppm (Fusarium fujikuroi [7]) [%] | inhibition at 7.35 ppm (Fusarium fujikuroi [8]) [%] | inhibition at 0.24 ppm (Fusarium fujikuroi [9]) [%] | inhibition at 0.24 ppm (Fusarium fujikuroi [10]) [%] | inhibition at 7.35 ppm (Fusarium fujikuroi [11]) [%] | inhibition at 7.35 ppm (Fusarium fujikuroi [12]) [%] | inhibition of growth at 10 ppm (Fusarium fujikuroi [13]) [%] | inhibition of growth at 20 ppm (Fusarium fujikuroi [14]) [%] | inhibition of growth at 40 ppm (Fusarium fujikuroi [15]) [%] | inhibition at 0.24 ppm (Fusarium fujikuroi [16]) [%]
C=CCCCOC(=O)C(CC)N(Cc1ccco1)C(=O)n1ccnc1 (racemic) [Pefurazoate] | 100 | 2.5 (≈ 7.24 µM) | 0.49 (≈ 1.42 µM) | 20 | 35 | 58 | 75 | 100 |  |  |  |  |  |  |  |  | 
C=CCCCOC(=O)[C@@H](CC)N(Cc1ccco1)C(=O)n1ccnc1 [(R)-(+)-pefurazoate] | 45 | 1.25 (≈ 3.62 µM) | 7.35 (≈ 21.3 µM) |  |  |  | 25 | 38 | 47 | 3.2 | 12.2 | 1.3 | 14.2 | 53 | 63 | 73 | 
C=CCCCOC(=O)[C@H](CC)N(Cc1ccco1)C(=O)n1ccnc1 [(S)-(-)-pefurazoate] | 100 | > 40 | 0.24 (≈ 0.695 µM) | 35 | 60 | 78 | 100 | 100 |  | 0.8 | 13.6 |  |  |  |  |  | 87
